Test results from the supplement of paper PMC13380429.

What was measured:
Details in all cases: 72 h
Caco-2 [1] = test: relative viability EC50 (midpoint between 100% and the lowest measured viability); higher = less toxic
Vero E6 [2] = test: as above
Caco-2 [3] = test: drug sensitivity score (DSS) for viability; higher = more toxic; extreme values may be limits of the assay
Vero E6 [4] = test: as above
U2OS [5] = test: as above
Calu-3 [6] = test: as above
HepG2 [7] = test: as above
Caco-2 [8] = test: cell viability relative to DMSO; higher = less toxic
Vero E6 [9] = test: as above
U2OS [10] = test: as above
Calu-3 [11] = test: as above
HepG2 [12] = test: as above
U2OS [13] = test: relative viability EC50 (midpoint between 100% and the lowest measured viability); higher = less toxic
HepG2 [14] = test: as above
Calu-3 [15] = test: as above

SMILES	relative viability EC50 (Caco-2 [1]) [µM]	relative viability EC50 (Vero E6 [2]) [µM]	drug sensitivity score (Caco-2 [3])	drug sensitivity score (Vero E6 [4])	drug sensitivity score (U2OS [5])	drug sensitivity score (Calu-3 [6])	drug sensitivity score (HepG2 [7])	cell viability (Caco-2 [8]; 1 nM) [%]	cell viability (Caco-2 [8]; 10 nM) [%]	cell viability (Caco-2 [8]; 100 nM) [%]	cell viability (Caco-2 [8]; 1000 nM) [%]	cell viability (Caco-2 [8]; 10000 nM) [%]	cell viability (Vero E6 [9]; 1 nM) [%]	cell viability (Vero E6 [9]; 10 nM) [%]	cell viability (Vero E6 [9]; 100 nM) [%]	cell viability (Vero E6 [9]; 1000 nM) [%]	cell viability (Vero E6 [9]; 10000 nM) [%]	cell viability (U2OS [10]; 1 nM) [%]	cell viability (U2OS [10]; 10 nM) [%]	cell viability (U2OS [10]; 100 nM) [%]	cell viability (U2OS [10]; 1000 nM) [%]	cell viability (U2OS [10]; 10000 nM) [%]	cell viability (Calu-3 [11]; 1 nM) [%]	cell viability (Calu-3 [11]; 10 nM) [%]	cell viability (Calu-3 [11]; 100 nM) [%]	cell viability (Calu-3 [11]; 1000 nM) [%]	cell viability (Calu-3 [11]; 10000 nM) [%]	cell viability (HepG2 [12]; 1 nM) [%]	cell viability (HepG2 [12]; 10 nM) [%]	cell viability (HepG2 [12]; 100 nM) [%]	cell viability (HepG2 [12]; 1000 nM) [%]	cell viability (HepG2 [12]; 10000 nM) [%]	relative viability EC50 (U2OS [13]) [µM]	relative viability EC50 (HepG2 [14]) [µM]	relative viability EC50 (Calu-3 [15]) [µM]
COc1cc2c(cc1F)C(c1ccccc1Cl)=Nc1c(n[nH]c1C)N2 [RG1530]	> 10	> 10	3.5	1.1	3.1	4	7.5	94.8	90.8	89.1	81.4	76.1	101	99	99.6	92.5	82.1	101	95.8	99.5	85.8	68.6	111	100	98.7	90.5	52.8	98.5	98.5	93.9	63.2	77.6	–	–	–
Cc1ccc(OCCSc2ncccn2)c(Br)c1 [ZLN024]	> 10	> 10	0	0	0	–	0	99.2	104	94.8	97	102	106	98.2	107	102	105	97.8	105	97.1	101	101	–	–	–	–	–	105	106	109	99.9	110	> 10	> 10	–
CCN(CCCc1ccccc1)CCCc1ccccc1 [alverine]	> 10	> 10	0	0	0	–	1.1	101	93.6	99.2	97.8	94.8	97.2	93.4	100	97.9	100	102	100	101	97.8	102	–	–	–	–	–	107	87.3	96.7	98.1	76.2	> 10	> 10	–
NCc1ccccc1CC(=O)N[C@@H]1C(=O)N2C(C(=O)O)=C(CSc3nnnn3CC(=O)O)CS[C@H]12 [ceforanide]	> 10	> 10	0	0	0	–	0	88.4	92.9	102	99.3	100	97.3	98	96.8	93.8	103	96.3	97.3	100	102	103	–	–	–	–	–	99.5	106	109	98	106	> 10	> 10	–
CC(=O)NC[C@H]1CN(c2ccc(N3CCN(C(=O)CO)CC3)c(F)c2)C(=O)O1 [eperezolid]	> 10	> 10	0	0	0	–	1.7	98.6	96.9	102	101	102	96.3	99.3	97.5	97.1	93.5	105	99.4	99.3	96.4	98.6	–	–	–	–	–	99.1	98.7	89.1	88.2	81.1	> 10	> 10	–
O=C1[C@H](CC[C@H](O)c2ccc(F)cc2)[C@@H](c2ccc(O)cc2)N1c1ccc(F)cc1 [ezetimibe]	> 10	> 10	0	0	0	–	0.2	97.6	98.1	93.3	95.9	88.9	99.6	106	100	100	107	95.9	101	95.8	104	91	–	–	–	–	–	103	96.6	100	90.8	88.8	> 10	> 10	–
Fc1ccc(Cn2c(NC3CCNCC3)nc3ccccc32)cc1 [tecastemizole]	–	> 10	0.8	0	0	0	1.4	97.8	98.1	99	106	73.3	104	95.6	101	90	98.9	95	98	96.9	98.2	103	90.7	99.2	107	99.5	102	106	96.6	114	83.9	86.2	> 10	> 10	> 10
